Active and inactive are the calls of the source. The rule behind the calls is not given here.
Experiments:
Mus musculus = experiment: Toxicity in mouse assessed as tolerability at 2.8 to 3.6 mg/kg, ip; format: organism-based; conditions: in vivo, dose 2.8-3.6 mg/kg
Acinetobacter baumannii [1] = experiment: Antimicrobial activity against oxacillinase-23 producing Acinetobacter baumannii K44-35 assessed as reduction in bacterial growth incubated for 48 hrs by microdilution method; format: functional
Pseudomonas aeruginosa [2] = experiment: Antimicrobial activity against verona integron-encoded metallo-beta-lactamase producing Pseudomonas aeruginosa 50692520 assessed as reduction in bacterial growth incubated for 48 hrs by microdilution method; format: functional
[3] = Antimicrobial activity against verona integron-encoded metallo-beta-lactamase -1 producing Klebsiella pneumoniae 50667959 assessed as reduction in bacterial growth incubated for 48 hrs by microdilution method; format: functional
HepG2 = experiment: Cytotoxicity against human HepG2 cells assessed as reduction in cell viability incubated for 24 hrs by colorimetric tetrazolium assay; format: functional, cell-based; conditions: HepG2, 24 h
Staphylococcus aureus [4] = experiment: Antimicrobial activity against Staphylococcus aureus ATCC 9144 assessed as reduction in bacterial growth incubated for 48 hrs by microdilution susceptibility test; format: functional
[5] = Antimicrobial activity against carbapenemase producing Klebsiella pneumoniae K47-25 assessed as reduction in bacterial growth incubated for 48 hrs by microdilution method; format: functional
Acinetobacter baumannii [6] = experiment: Antimicrobial activity against oxacillinase-24 producing Acinetobacter baumannii K55-13 assessed as reduction in bacterial growth incubated for 48 hrs by microdilution method; format: functional
[7] = Toxicity in ip dosed mouse assessed as maximum tolerated dose; format: organism-based; conditions: in vivo
Pseudomonas aeruginosa [8] = experiment: Antimicrobial activity against New Delhi metallo-beta lactamase-1 producing Pseudomonas aeruginosa 50692172 assessed as reduction in bacterial growth incubated for 48 hrs by microdilution method; format: functional
Enterococcus faecium [9] = experiment: Antimicrobial activity against extended spectrum-lactamase-carbapenemas producing Enterococcus faecium strain 50673722 assessed as reduction in bacterial growth incubated for 48 hrs by microdilution method; format: functional
Acinetobacter baumannii [10] = experiment: Antimicrobial activity against oxacillinase-58 producing Acinetobacter baumannii K12-21 assessed as reduction in bacterial growth incubated for 48 hrs by microdilution method; format: functional
Enterococcus faecium [11] = experiment: Antimicrobial activity against extended spectrum-lactamase-carbapenemas producing Enterococcus faecium strain 50758899 assessed as reduction in bacterial growth incubated for 48 hrs by microdilution method; format: functional
[12] = Hemolytic activity in human erythrocytes incubated for 1 hr by microplate reader; format: functional, cell-based; conditions: erythrocyte
Escherichia coli [13] = experiment: Antimicrobial activity against New Delhi metallo-beta lactamase-1 producing Escherichia coli 50676002 assessed as reduction in bacterial growth incubated for 48 hrs by microdilution method; format: functional
[14] = Antimicrobial activity against New Delhi metallo-beta lactamase-1 and oxacillinase -181 producing Klebsiella pneumoniae 50531633 assessed as reduction in bacterial growth incubated for 48 hrs by microdilution method; format: functional
[15] = Antimicrobial activity against New Delhi metallo-beta lactamase-1 Klebsiella pneumoniae K66-45 assessed as reduction in bacterial growth incubated for 48 hrs by microdilution method; format: functional
Streptococcus pneumoniae [16] = experiment: Antibacterial activity against Klebsiella pneumoniae KP3010 infected in mouse peritonitis model assessed as reduction in colony forming unit at 1.4 mg/kg, ip treatment repeated after 3 hrs relative to control; format: functional
Streptococcus pneumoniae [17] = experiment: Antibacterial activity against in […] 168 assessed as decrease in bacterial viability at 3.1 ug/ml by cell viability assay; format: functional, organism-based; conditions: dose 3.1 µg/ml
Staphylococcus aureus [18] = experiment: Antimicrobial activity against extended spectrum-lactamase-carbapenemas producing Staphylococcus aureus NCTC 10442 assessed as reduction in bacterial growth incubated for 48 hrs by microdilution method; format: functional
Enterococcus faecium [19] = experiment: Antimicrobial activity against extended spectrum-lactamase-carbapenemas producing Enterococcus faecium strain TUH.50-22 assessed as reduction in bacterial growth incubated for 48 hrs by microdilution method; format: functional
Escherichia coli [20] = experiment: Antibacterial activity against Escherichia coli HB101 assessed as decrease in bacterial viability at 6.3 ug/ml by cell viability assay; format: functional, organism-based; conditions: dose 6.3 µg/ml
Acinetobacter baumannii [21] = experiment: Antimicrobial activity against oxacillinase-23 producing Acinetobacter baumannii K47-42 assessed as reduction in bacterial growth incubated for 48 hrs by microdilution method; format: functional
Enterococcus faecium [22] = experiment: Antimicrobial activity against extended spectrum-lactamase-carbapenemas producing Enterococcus faecium strain K36-18 assessed as reduction in bacterial growth incubated for 48 hrs by microdilution method; format: functional
Streptococcus pneumoniae [23] = experiment: Antibacterial activity against Klebsiella pneumoniae KP3010 infected in mouse peritonitis model assessed as reduction in colony forming unit at 1.4 mg/kg, ip relative to control; format: functional
Escherichia coli [24] = experiment: Antimicrobial activity against New Delhi metallo-beta lactamase-1 producing Escherichia coli 50739822 assessed as reduction in bacterial growth incubated for 48 hrs by microdilution method; format: functional
[25] = Antimicrobial activity against oxacillinase-245 producing Klebsiella pneumoniae 50625602 assessed as reduction in bacterial growth incubated for 48 hrs by microdilution method; format: functional
Escherichia coli [26] = experiment: Antibacterial activity against Escherichia coli EC106-09 infected in mouse peritonitis model assessed as reduction in colony forming unit at 1.4 mg/kg, ip relative to control; format: functional
MRC5 = experiment: Cytotoxicity against human MRC5 cells assessed as reduction in cell viability incubated for 24 hrs by colorimetric tetrazolium assay; format: functional, cell-based; conditions: MRC5, 24 h
Staphylococcus aureus [27] = experiment: Antimicrobial activity against extended spectrum-lactamase-carbapenemas producing Staphylococcus aureus strain WIS assessed as reduction in bacterial growth incubated for 48 hrs by microdilution method; format: functional
Staphylococcus aureus [28] = experiment: Antimicrobial activity against extended spectrum-lactamase-carbapenemas producing Staphylococcus aureus strain 85/2082 assessed as reduction in bacterial growth incubated for 48 hrs by microdilution method; format: functional
Escherichia coli [29] = experiment: Antimicrobial activity against Escherichia coli ATCC 25922 assessed as reduction in bacterial growth incubated for 48 hrs by microdilution susceptibility test; format: functional
Escherichia coli [30] = experiment: Membrano-lytic effect in Escherichia coli HB101 assessed as decrease in bacterial viability at 6.3 ug/ml by luciferase based real-time membrane integrity assay; format: functional, organism-based; conditions: dose 6.3 µg/ml
Escherichia coli [31] = experiment: Antimicrobial activity against oxacillinase-producing Escherichia coli 50579417 assessed as reduction in bacterial growth incubated for 48 hrs by microdilution method; format: functional
Staphylococcus aureus [32] = experiment: Antimicrobial activity against extended spectrum-lactamase-carbapenemas producing Staphylococcus aureus N315 assessed as reduction in bacterial growth incubated for 48 hrs by microdilution method; format: functional
[33] = system: Corynebacterium glutamicum; experiment: Antimicrobial activity against Corynebacterium glutamicum ATCC 13032 assessed as reduction in bacterial growth incubated for 48 hrs by microdilution susceptibility test; format: functional
Escherichia coli [34] = experiment: Antibacterial activity against in Escherichia coli HB101 assessed as decrease in bacterial viability at 3.1 ug/ml by cell viability assay; format: functional, organism-based; conditions: dose 3.1 µg/ml
Pseudomonas aeruginosa [35] = experiment: Antimicrobial activity against Pseudomonas aeruginosa PAO1 assessed as reduction in bacterial growth incubated for 48 hrs by microdilution susceptibility test; format: functional
Escherichia coli [36] = experiment: Antimicrobial activity against verona integron-encoded metallo-beta-lactamase-29-producing Escherichia coli 50639799 assessed as reduction in bacterial growth incubated for 48 hrs by microdilution method; format: functional
Enterococcus faecium [37] = experiment: Antimicrobial activity against extended spectrum-lactamase-carbapenemas producing Enterococcus faecium strain 50901530 assessed as reduction in bacterial growth incubated for 48 hrs by microdilution method; format: functional
Escherichia coli [38] = experiment: Membrano-lytic effect in Escherichia coli HB101 assessed as decrease in bacterial viability at 3.1 ug/ml by luciferase based real-time membrane integrity assay; format: functional, organism-based; conditions: dose 3.1 µg/ml
Streptococcus pneumoniae [39] = experiment: Antibacterial activity against in […] 168 assessed as decrease in bacterial viability at 6.3 ug/ml by cell viability assay; format: functional, organism-based; conditions: dose 6.3 µg/ml
Escherichia coli [40] = experiment: Antibacterial activity against Escherichia coli EC106-09 infected in mouse peritonitis model assessed as reduction in colony forming unit at 1.4 mg/kg, ip treatment repeated after 3 hrs relative to control; format: functional
Pseudomonas aeruginosa [41] = experiment: Antimicrobial activity against verona integron-encoded metallo-beta-lactamase-4 producing Pseudomonas aeruginosa K34-73 assessed as reduction in bacterial growth incubated for 48 hrs by microdilution method; format: functional
Pseudomonas aeruginosa [42] = experiment: Antimicrobial activity against imipenem-type carbapenemase-14 producing Pseudomonas aeruginosa K44-24 assessed as reduction in bacterial growth incubated for 48 hrs by microdilution method; format: functional
Acinetobacter baumannii [43] = experiment: Antimicrobial activity against oxacillinase-23 producing Acinetobacter baumannii K63-58 assessed as reduction in bacterial growth incubated for 48 hrs by microdilution method; format: functional
Pseudomonas aeruginosa [44] = experiment: Antimicrobial activity against verona integron-encoded metallo-beta-lactamase-2 producing Pseudomonas aeruginosa K34-7 assessed as reduction in bacterial growth incubated for 48 hrs by microdilution method; format: functional
Escherichia coli [45] = experiment: Antimicrobial activity against imipenem-type carbapenemase-26 producing Escherichia coli 50857972 assessed as reduction in bacterial growth incubated for 48 hrs by microdilution method; format: functional
Staphylococcus aureus [46] = experiment: Antimicrobial activity against extended spectrum-lactamase-carbapenemas producing Staphylococcus aureus strain IHT 99040 assessed as reduction in bacterial growth incubated for 48 hrs by microdilution method; format: functional

N=C(N)NCCCCN1C(=O)N(CCCCNC(=N)N)C(=O)C(Cc2cc(Br)cc(Br)c2)(Cc2cc(Br)cc(Br)c2)C1=O.O=C(O)C(F)(F)F.O=C(O)C(F)(F)F
Activity (Mus musculus): Non-Toxic
MIC (Acinetobacter baumannii [1]): 4 µg/mL
MIC (Pseudomonas aeruginosa [2]): 16 µg/mL
MIC [3]: 4 µg/mL
IC50 (HepG2): 30 µg/mL
MIC (Staphylococcus aureus [4]): 1 µg/mL
MIC [5]: 4 µg/mL
MIC (Acinetobacter baumannii [6]): 8 µg/mL
MTD [7]: 7 mg/kg
MIC (Pseudomonas aeruginosa [8]): 8 µg/mL
MIC (Enterococcus faecium [9]): 4 µg/mL
MIC (Acinetobacter baumannii [10]): 4 µg/mL
MIC (Enterococcus faecium [11]): 4 µg/mL
EC50 [12]: 62 µg/mL
MIC (Escherichia coli [13]): 4 µg/mL
MIC [14]: 4 µg/mL
MIC [15]: 4 µg/mL
inhibition in vivo at 1.4 mg/kg (Streptococcus pneumoniae [16]): 97%
Activity (Streptococcus pneumoniae [17]): Active
MIC (Staphylococcus aureus [18]): 2 µg/mL
MIC (Enterococcus faecium [19]): 2 µg/mL
Activity (Escherichia coli [20]): Active
MIC (Acinetobacter baumannii [21]): 4 µg/mL
MIC (Enterococcus faecium [22]): 4 µg/mL
inhibition in vivo at 1.4 mg/kg (Streptococcus pneumoniae [23]): 98%
MIC (Escherichia coli [24]): 4 µg/mL
MIC [25]: 4 µg/mL
inhibition in vivo at 1.4 mg/kg (Escherichia coli [26]): 90%
IC50 (MRC5): 11 µg/mL
MIC (Staphylococcus aureus [27]): 2 µg/mL
MIC (Staphylococcus aureus [28]): 2 µg/mL
MIC (Escherichia coli [29]): 2 µg/mL
Activity (Escherichia coli [30]): Active
MIC (Escherichia coli [31]): 4 µg/mL
MIC (Staphylococcus aureus [32]): 2 µg/mL
MIC [33]: 0.25 µg/mL
Activity (Escherichia coli [34]): Active
MIC (Pseudomonas aeruginosa [35]): 4 µg/mL
MIC (Escherichia coli [36]): 4 µg/mL
MIC (Enterococcus faecium [37]): 2 µg/mL
Activity (Escherichia coli [38]): Active
Activity (Streptococcus pneumoniae [39]): Active
inhibition in vivo at 1.4 mg/kg (Escherichia coli [40]): 97%
MIC (Pseudomonas aeruginosa [41]): 8 µg/mL
MIC (Pseudomonas aeruginosa [42]): 8 µg/mL
MIC (Acinetobacter baumannii [43]): 4 µg/mL
MIC (Pseudomonas aeruginosa [44]): 8 µg/mL
MIC (Escherichia coli [45]): 4 µg/mL
MIC (Staphylococcus aureus [46]): 2 µg/mL

From ChEMBL document CHEMBL5055633, “Amphipathic Barbiturates as Mimics of Antimicrobial Peptides and the Marine Natural Products Eusynstyelamides with Activity against Multi-resistant Clinical Isolates” (J Med Chem, 2021)
